Earlier results as cited in patent EP1027077B1, “MAGNETIC RESONANCE IMAGING AGENTS FOR THE DELIVERY OF THERAPEUTIC AGENTS” (Research Corporation Technologies, Inc, priority 1997, dated 1999).

Conditions: thermodynamic stability of the Gd(III) chelate; background statement

stability constant (K) / formation constant, logK	SMILES
28.5	O=C([O-])CN1CCN(CC(=O)[O-])CCN(CC(=O)[O-])CCN(CC(=O)[O-])CC1.[Gd+3] [Gd-DOTA]
22.4	O=C([O-])CN(CCN(CC(=O)[O-])CC(=O)[O-])CCN(CC(=O)[O-])CC(=O)[O-].[Gd+3] [Gd(DTPA)^2-]
